Assay results taken from PubChem BioAssay AID2060345 (Molecular Pharmacology Branch, DTP, NCI, 2025).

System: MALME-3M multicell spheroids, viability
Assay: Anticancer human tumor MALME-3M cell line growth inhibition [TAK];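 further: spheroids exposed to drugs for seven days before readout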;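 on viability, T/C: 100% = DMSO vehicle control viability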
Conditions: for IC50: curve of first compound; for viability, T/C: stronger effect = lower value
Excerpt: Combinatorial screen of targeted agents with TAK-243 and ipatasertib in multi-cell type tumor spheroids
A high-throughput screen of multi-cell type tumor spheroids was designed to identify active combinations of targeted small molecules and TAK-243 or ipatasertib. Complex spheroids include a stromal component modeled by human endothelial cells (HUVEC) and fibroblasts modeled by human mesenchymal stem cells (MSCs). The concentration ranges selected for each drug and investigational agent were based upon clinically achievable concentrations if the clinical Cmax of the agent was known.
Compounds. The drugs and investigational agents: TAK-243 (785004), ipatasertib (767898), everolimus (733504), selumetinib (741078), bortezomib (756655), trametinib (758246), ixazomib (758254), vemurafenib (761431), dabrafenib (764134), sapanisertib (764658), alpelisib (765974), and copanlisib (816437), were obtained from the National Cancer Institute (NCI) Developmental Therapeutics Program Chemical Repository. The FDA-approved anticancer drug set is available from the NCI Developmental Therapeutics Program. […] The stock solutions were prepared in dimethyl sulfoxide (DMSO, Sigma-Aldrich, St. Louis, MO, cat. D2650) at 800-fold the tested concentration and stored at -70 degrees C prior to their use. All drugs and investigational agents were tested over a range starting from a high concentration at or near the clinical Cmax and decreasing in half-log increments. If the clinical Cmax for an agent had not been determined, the highest concentration tested was 10 microM.
NCI60 Cell Culture. NCI60 cell lines were obtained from the NCI Developmental Therapeutics Program Tumor Repository. For each lot of cells, the Repository performed Applied Biosystems AmpFLSTR Identifiler testing with PCR amplification to confirm consistency with the published Identifier STR profile for each cell line. Cells were kept in continuous culture for no more than 20 passages. The optimal seeding densities for each of the cell lines at each time point assessed were determined prior to performing the concentration response studies. Briefly, the NCI60 human tumor lines were grown as monolayers in RPMI 1640 medium supplemented with 10% FBS and 2 mmol/L L-glutamine.
An additional 2 lines were from the NCI60 cell line panel including melanomas, MALME-3M and SK-MEL-2. Pooled donor human umbilical vein endothelial cells (HUVEC, Lonza, cat. CC-2519) and human mesenchymal stem cells (hMSC, Lonza, cat. PT-2501) were purchased from Lonza (Walkersville, MD).
PDMR cell lines were grown in complete medium (DC medium): Dulbecco's modified Eagle's medium (DMEM)/F12 supplemented with 5% fetal bovine serum (FBS), 2 mM L-glutamine, 100 U/mL penicillin and 100 µg/ml streptomycin, 0.4 µg/ml hydrocortisone, 10 ng/ml epidermal growth factor (EGF) recombinant human protein, 24 µg/mL adenine, and 0.1 mg/mL primocin. During culture from frozen stock vials, PDMR cells were cultured in the same medium containing 10 µM Y-27632 (see Table 3). The PDCs were cultured in complete DMEM/F12 media without 10 microM Y-27632 dihydrochloride for at least two passages prior to the screen. The pooled donor HUVEC and hMSC were cultured in endothelial cell growth medium 2 (PromoCell, Heidelberg, Germany, cat. C-22011) and mesenchymal stem cell growth medium 2 (PromoCell, cat. C-28009), respectively. For all experiments, HUVEC and hMSC were used at passages </=5.
For the pre-screen, cell seeding densities were determined from a titration spanning the range from 5,000 to 313 cells per well. The mct-spheroids including 60% malignant cells, 25% HUVEC and 15% MSC dispensed as a mixture into U-bottom Ultra-Low Attachment 384-well plates (Corning, NY)
High-throughput Drug Combination Screening.
Prior to their inoculation into 384-well plates, malignant cells, HUVEC, and hMSC were removed from T flasks using TrypLE express (Thermo Fisher Scientific, cat. 12605036) and harvested by centrifugation for 5 min at 233 x g. […]

[1] = second compound 0.3 µM, first compound 0.0316 µM
[2] = second compound 0.3 µM, first compound 0.1 µM
[3] = second compound 0.3 µM, first compound 0.316 µM
[4] = second compound 0.3 µM, first compound 1 µM
[5] = second compound 0.3 µM, first compound 3.16 µM
[6] = second compound 0.3 µM, first compound 10 µM
[7] = second compound 0.949 µM, first compound 0.0316 µM
[8] = second compound 0.949 µM, first compound 0.1 µM
[9] = second compound 0.949 µM, first compound 0.316 µM
[10] = second compound 0.949 µM, first compound 1 µM
[11] = second compound 0.949 µM, first compound 3.16 µM
[12] = second compound 0.949 µM, first compound 10 µM
[13] = second compound 3 µM, first compound 0.0316 µM
[14] = second compound 3 µM, first compound 0.1 µM
[15] = second compound 3 µM, first compound 0.316 µM
[16] = second compound 3 µM, first compound 1 µM
[17] = second compound 3 µM, first compound 3.16 µM
[18] = second compound 3 µM, first compound 10 µM
[19] = second compound 9.49 µM, first compound 0.0316 µM
[20] = second compound 9.49 µM, first compound 0.1 µM
[21] = second compound 9.49 µM, first compound 0.316 µM
[22] = second compound 9.49 µM, first compound 1 µM
[23] = second compound 9.49 µM, first compound 3.16 µM
[24] = second compound 9.49 µM, first compound 10 µM
[25] = second compound 30 µM, first compound 0.0316 µM
[26] = second compound 30 µM, first compound 0.1 µM
[27] = second compound 30 µM, first compound 0.316 µM
[28] = second compound 30 µM, first compound 1 µM
[29] = second compound 30 µM, first compound 3.16 µM
[30] = second compound 30 µM, first compound 10 µM

Question: For `Cc1nc(NC(=O)N2CCCC2C(N)=O)sc1-c1ccnc(C(C)(C)C(F)(F)F)c1` (stereo not given) + CC(C)NCC(C(=O)N1CCN(c2ncnc3c2C(C)CC3O)CC1)c1ccc(Cl)cc1, which IC50 (second compound 0.3 µM) is on record?
Answer: Its IC50 is over 10000 nM.

Question: And the IC50 (second compound 0.949 µM)?
Answer: The IC50 was over 10000 nM.

Question: And the IC50 (second compound 3 µM)?
Answer: Its IC50 is over 10000 nM.

Question: And the IC50 (second compound 9.49 µM)?
Answer: The IC50 was 4310 nM.

Question: And the IC50 (second compound 30 µM)?
Answer: The IC50 was 355 nM.

Question: And the viability, T/C [1]?
Answer: The viability, T/C was 110%.

Question: And the viability, T/C [2]?
Answer: Its viability, T/C is 104%.

Question: What about the viability, T/C [3] of the same compound?
Answer: Its viability, T/C is 97.7%.

Question: And the viability, T/C [4]?
Answer: Its viability, T/C is 88.1%.

Question: What about the viability, T/C [5] of the same compound?
Answer: The viability, T/C was 72.5%.

Question: And the viability, T/C [6]?
Answer: The viability, T/C was 59.1%.

Question: What about the viability, T/C [7] of the same compound?
Answer: Its viability, T/C is 107%.

Question: And the viability, T/C [8]?
Answer: Its viability, T/C is 103%.

Question: And the viability, T/C [9]?
Answer: Its viability, T/C is 86.3%.

Question: And the viability, T/C [10]?
Answer: The viability, T/C was 90.7%.

Question: And the viability, T/C [11]?
Answer: Its viability, T/C is 75.5%.

Question: And the viability, T/C [12]?
Answer: Its viability, T/C is 55.4%.

Question: And the viability, T/C [13]?
Answer: Its viability, T/C is 94.3%.

Question: What about the viability, T/C [14] of the same compound?
Answer: The viability, T/C was 88.6%.

Question: What about the viability, T/C [15] of the same compound?
Answer: The viability, T/C was 79.3%.

Question: What about the viability, T/C [16] of the same compound?
Answer: Its viability, T/C is 75.2%.

Question: And the viability, T/C [17]?
Answer: The viability, T/C was 73.8%.

Question: And the viability, T/C [18]?
Answer: Its viability, T/C is 53%.

Question: And the viability, T/C [19]?
Answer: The viability, T/C was 79.4%.

Question: What about the viability, T/C [20] of the same compound?
Answer: The viability, T/C was 73%.

Question: What about the viability, T/C [21] of the same compound?
Answer: The viability, T/C was 67.1%.

Question: What about the viability, T/C [22] of the same compound?
Answer: Its viability, T/C is 67.5%.

Question: And the viability, T/C [23]?
Answer: The viability, T/C was 54.8%.

Question: What about the viability, T/C [24] of the same compound?
Answer: Its viability, T/C is 37.4%.

Question: What about the viability, T/C [25] of the same compound?
Answer: Its viability, T/C is 56.3%.

Question: And the viability, T/C [26]?
Answer: The viability, T/C was 59.1%.

Question: And the viability, T/C [27]?
Answer: The viability, T/C was 47.1%.

Question: And the viability, T/C [28]?
Answer: Its viability, T/C is 42%.

Question: What about the viability, T/C [29] of the same compound?
Answer: The viability, T/C was 40%.

Question: What about the viability, T/C [30] of the same compound?
Answer: Its viability, T/C is 22%.

Question: With `CC(C)(C)c1nc(-c2cccc(NS(=O)(=O)c3c(F)cccc3F)c2F)c(-c2ccnc(N)n2)s1` + CC(C)NCC(C(=O)N1CCN(c2ncnc3c2C(C)CC3O)CC1)c1ccc(Cl)cc1 as the compound, how does the IC50 (second compound 0.3 µM) read?
Answer: The IC50 was under 31.6 nM.

Question: What about the IC50 (second compound 0.949 µM) of the same compound?
Answer: Its IC50 is under 31.6 nM.

Question: And the IC50 (second compound 3 µM)?
Answer: The IC50 was under 31.6 nM.

Question: And the IC50 (second compound 9.49 µM)?
Answer: The IC50 was under 31.6 nM.

Question: What about the IC50 (second compound 30 µM) of the same compound?
Answer: Its IC50 is under 31.6 nM.

Question: What about the viability, T/C [1] of the same compound?
Answer: Its viability, T/C is 26.6%.

Question: What about the viability, T/C [2] of the same compound?
Answer: The viability, T/C was 23.6%.

Question: And the viability, T/C [3]?
Answer: Its viability, T/C is 25%.

Question: What about the viability, T/C [4] of the same compound?
Answer: The viability, T/C was 25.8%.

Question: And the viability, T/C [5]?
Answer: The viability, T/C was 22.2%.

Question: And the viability, T/C [6]?
Answer: The viability, T/C was 29.6%.

Question: What about the viability, T/C [7] of the same compound?
Answer: Its viability, T/C is 27.1%.

Question: What about the viability, T/C [8] of the same compound?
Answer: The viability, T/C was 26.2%.

Question: And the viability, T/C [9]?
Answer: Its viability, T/C is 23.2%.

Question: And the viability, T/C [10]?
Answer: The viability, T/C was 24.8%.

Question: What about the viability, T/C [11] of the same compound?
Answer: Its viability, T/C is 20.6%.

Question: What about the viability, T/C [12] of the same compound?
Answer: The viability, T/C was 26.2%.

Question: And the viability, T/C [13]?
Answer: Its viability, T/C is 25.4%.

Question: And the viability, T/C [14]?
Answer: The viability, T/C was 26.8%.

Question: And the viability, T/C [15]?
Answer: Its viability, T/C is 21.3%.

Question: What about the viability, T/C [16] of the same compound?
Answer: Its viability, T/C is 20.1%.

Question: And the viability, T/C [17]?
Answer: The viability, T/C was 15.4%.

Question: And the viability, T/C [18]?
Answer: Its viability, T/C is 21.5%.

Question: And the viability, T/C [19]?
Answer: The viability, T/C was 23%.

Question: And the viability, T/C [20]?
Answer: Its viability, T/C is 21%.

Question: And the viability, T/C [21]?
Answer: The viability, T/C was 19.5%.

Question: And the viability, T/C [22]?
Answer: Its viability, T/C is 15.6%.

Question: What about the viability, T/C [23] of the same compound?
Answer: Its viability, T/C is 14.1%.

Question: And the viability, T/C [24]?
Answer: Its viability, T/C is 17.1%.

Question: What about the viability, T/C [25] of the same compound?
Answer: Its viability, T/C is 17.1%.

Question: And the viability, T/C [26]?
Answer: The viability, T/C was 18.4%.

Question: What about the viability, T/C [27] of the same compound?
Answer: Its viability, T/C is 18.5%.

Question: What about the viability, T/C [28] of the same compound?
Answer: The viability, T/C was 11.4%.

Question: And the viability, T/C [29]?
Answer: The viability, T/C was 8.12%.

Question: And the viability, T/C [30]?
Answer: The viability, T/C was 11.6%.
